Data set [1] relates to Mus musculus. In words: (§1) Toxicity in ip dosed BDF1 mouse allografted with mouse P388 cells administered qd for 5 days. To be noted: mouse, in vivo, 120 h. In kind it is organism-based.
The species named for the next data set is Bos taurus. In words: Displacement of ethidium bromide from calf thymus DNA by spectrofluorometric analysis.
Data set [2] is described as follows: Lipophilic-hydrophilic balance, Rm of the compound by reversed-phase chromatographic analysis. In kind it is physicochemical.
A further data set has as its system P388. In words: Antitumor activity against mouse P388 cells allografted in ip dosed BDF1 mouse at optimum dose administered qd for 5 days relative to control. In kind it is functional.
The test system of data set [3] is Mus musculus. In words: Toxicity in ip dosed BDF1 mouse allografted with mouse L1210 cells administered qd for 5 days. In kind it is organism-based. To be noted: mouse, in vivo, 120 h.
Another data set concerns L1210. Description: Antitumor activity against mouse L1210 cells allografted in ip dosed BDF1 mouse at optimum dose administered qd for 5 days relative to control. In kind it is functional.
The nature of data set [4]: as §1. In kind it is organism-based. To be noted: BDF1, mouse, in vivo.

Some results are limits rather than exact numbers.

`c1ccc2c(NCCCCCCCCNc3c4ccccc4nc4ccccc34)c3ccccc3nc2c1` had an Activity with Mus musculus [1] of 2.5 mg/kg/day. Moreover, the C50 in the data set filed under Bos taurus was 0.11 µM. This compound also had a Rm in data set [2] of 0.44. Further, in the data set on P388, the ILS – broadly, how much longer treated animals lived than controls – was determined as 55%.
Regarding `Cl.O.O=S(=O)(CCCCCS(=O)(=O)Nc1ccc(Nc2c3ccccc3nc3ccccc23)cc1)Nc1ccc(Nc2c3ccccc3nc3ccccc23)cc1`, the Activity in the data set on Mus musculus [1] and with Mus musculus [3] was 210 mg/kg/day each time. The same compound had a C50 in the data set filed under Bos taurus of 0.07 µM. Moreover, in data set [2], the Rm is on record as -0.02. Also, the ILS in the data set on P388 is listed as 49%; in the data set with L1210, 28%.
Turning to `CS(=O)(=O)Nc1ccc(Nc2c3ccccc3nc3ccccc23)cc1`, the Activity in the data set with Mus musculus [1] and in the data set with Mus musculus [3] was 45 mg/kg/day throughout. Moreover, in the data set listed under Bos taurus, the C50 amounted to 5.9 µM. In addition, the Rm in data set [2] is given as 0. The results for the ILS in the data set on P388 and in the data set on L1210 were 223% and 107%, respectively.
`Cl.O.O=S(=O)(CCNc1ncnc2ccccc12)Nc1ccc(Nc2c3ccccc3nc3ccccc23)cc1`: the figures for the Activity in the data set with Mus musculus [1] and in the data set with Mus musculus [3] were 100 mg/kg/day and 50 mg/kg/day, respectively. In the data set listed under Bos taurus, this compound came in with a C50 of 0.67 µM. For the same compound, the Rm in data set [2] is given as -0.53. For the same compound, the ILS is reported as 100% in the data set on P388 and 57% with L1210.
In the data set on Mus musculus [1], `c1ccc2c(NCCCCCCCNc3c4ccccc4nc4ccccc34)c3ccccc3nc2c1` gave an Activity of 5 mg/kg/day. The C50 in the data set filed under Bos taurus came to 0.1 µM. In data set [2], this compound yielded a Rm of 0.27. In the data set with P388, the ILS is 67%.
`c1ccc2c(NCCCCCCCCCCNc3c4ccccc4nc4ccccc34)c3ccccc3nc2c1`: the Activity in the data set on Mus musculus [1] worked out at 2.5 mg/kg/day. In the data set filed under Bos taurus, the C50 came to 0.09 µM. The Rm in data set [2] stood at 0.65. The compound also had an ILS in the data set on P388 of 33%.
As to `O.c1ccc(OCCCNc2ccnc3ccccc23)c(Nc2c3ccccc3nc3ccccc23)c1`, the MTD at 120 h in data set [4] stood at 50 mg/kg/day. In the data set filed under Bos taurus, this compound yielded a C50 of 2.7 µM. For the same compound, the Rm in data set [2] is given as -0.19. In addition, the ILS in the data set on P388 was >25%.
`Cl.O.c1ccc(OCCCCCNc2ccnc3ccccc23)c(Nc2c3ccccc3nc3ccccc23)c1` came in with an MTD at 120 h in data set [4] of 17 mg/kg/day. The compound further showed a C50 in the data set listed under Bos taurus of 1.9 µM. The same compound had a Rm in data set [2] of 0.23. The ILS in the data set with P388 was >25%.
`CS(=O)(=O)Nc1ccc(Nc2c3ccccc3nc3c(C(N)=O)cccc23)c(OCCCCOc2cc(NS(C)(=O)=O)ccc2Nc2c3ccccc3nc3c(C(N)=O)cccc23)c1.Cl.O` returned an MTD at 120 h in data set [4] of 275 mg/kg/day. Further, the C50 in the data set listed under Bos taurus was found to be 0.72 µM. In addition, the Rm in data set [2] is -0.87. The ILS in the data set on P388 was >25%.
In data set [4], `Cl.c1ccc(OCCCCOc2ccccc2Nc2ccnc3ccccc23)c(Nc2ccnc3ccccc23)c1` showed an MTD at 120 h of 25 mg/kg/day. In the data set filed under Bos taurus, the C50 came to 9.2 µM. Also, in data set [2], the Rm is -0.1. In the data set on P388, the ILS is given as >25%.
Take `c1ccc2c(NCCCCCCNc3c4ccccc4nc4ccccc34)c3ccccc3nc2c1`: the Activity in the data set with Mus musculus [1] is 2.5 mg/kg/day. This compound showed a C50 in the data set filed under Bos taurus of 0.15 µM. This compound also displayed a Rm in data set [2] of 0.13. In the data set with P388, this compound returned an increase in lifespan (ILS) of 53%.
For `CCOc1cc(NS(C)(=O)=O)ccc1Nc1c2ccccc2nc2ccccc12`, the Activity with Mus musculus [1] and with Mus musculus [3] was 60 mg/kg/day in each case. Besides, the C50 in the data set listed under Bos taurus amounted to 19 µM. The compound also returned a Rm in data set [2] of 0.37. The ILS in the data set with P388 is listed as 218%; with L1210, 71%.
Consider `COc1cc(NS(=O)(=O)CCCS(=O)(=O)Nc2ccc(Nc3c4ccccc4nc4ccccc34)c(OC)c2)ccc1Nc1c2ccccc2nc2ccccc12.CS(=O)(=O)O.O`, for which the Activity in the data set with Mus musculus [1] and in the data set with Mus musculus [3] was 50 mg/kg/day each time. Besides, the Rm in data set [2] is given as 0.22.
With `c1ccc2c(NCCNc3c4ccccc4nc4ccccc34)c3ccccc3nc2c1`, in data set [4], the MTD at 120 h was 5 mg/kg/day. Also, the C50 in the data set filed under Bos taurus came out at 0.7 µM. Besides, the Rm in data set [2] is on record as -0.44. Further, the ILS in the data set with P388 is recorded as >25%.
In the case of `c1ccc2c(NCCCCCNc3c4ccccc4nc4ccccc34)c3ccccc3nc2c1`, the Activity in the data set with Mus musculus [1] worked out at 7.5 mg/kg/day. The same compound registered a C50 in the data set filed under Bos taurus of 0.21 µM. In addition, the Rm in data set [2] is -0.06. Besides, the ILS in the data set on P388 was determined as 36%.
Regarding `COc1cc(NS(=O)(=O)CCCCCS(=O)(=O)Nc2ccc(Nc3c4ccccc4nc4ccccc34)c(OC)c2)ccc1Nc1c2ccccc2nc2ccccc12.CS(=O)(=O)O.O`, the Activity in the data set with Mus musculus [1] and in the data set with Mus musculus [3] was 400 mg/kg/day each time. Besides, the C50 in the data set listed under Bos taurus came out at 0.14 µM. The compound further yielded a Rm in data set [2] of 0.35. Besides, the ILS in the data set on P388 is reported as 71%; in the data set with L1210 it was 36%.
In turn, `c1ccc2c(NCCCCNc3c4ccccc4nc4ccccc34)c3ccccc3nc2c1` came in with an MTD at 120 h in data set [4] of 10 mg/kg/day. In the data set listed under Bos taurus, the C50 worked out at 0.3 µM. For the same compound, the Rm in data set [2] is on record as -0.26. In the data set on P388, the ILS is given as >25%.
Consider `Cl.c1ccc(OCCCCOc2ccccc2Nc2c3ccccc3nc3ccccc23)c(Nc2c3ccccc3nc3ccccc23)c1`, for which the MTD at 120 h in data set [4] was > 500 mg/kg/day. In the data set filed under Bos taurus, this compound yielded a C50 of 0.8 µM. In data set [2], this compound had a Rm of 0.53. In addition, the ILS in the data set with P388 is reported as >25%.
As to `Cl.O.O=S(=O)(CCCCCNc1c2ccccc2nc2ccccc12)Nc1ccc(Nc2c3ccccc3nc3ccccc23)cc1`, the Activity in the data set on Mus musculus [1] and with Mus musculus [3] was 250 mg/kg/day each time. In the data set listed under Bos taurus, this compound returned a C50 of 0.17 µM. Also, the Rm in data set [2] is reported as -0.04. Further, the figures for the ILS with P388 and in the data set on L1210 were 63% and 35%, respectively.
In the case of `Br.O=S(=O)(CCCNc1ccnc2ccccc12)Nc1ccc(Nc2c3ccccc3nc3ccccc23)cc1`, in data set [4], the MTD at 120 h amounted to 375 mg/kg/day. In the data set listed under Bos taurus, this compound registered a C50 of 0.12 µM. Also, in data set [2], the Rm is recorded as -0.45. Further, in the data set on P388, the ILS was >25%.
`COc1cc(NS(=O)(=O)CCCCS(=O)(=O)Nc2ccc(Nc3c4ccccc4nc4c(C(N)=O)cccc34)c(OC)c2)ccc1Nc1c2ccccc2nc2c(C(N)=O)cccc12.Cl.O` displayed an MTD at 120 h in data set [4] of 11 mg/kg/day. In addition, the C50 in the data set listed under Bos taurus was 0.068 µM. Further, in data set [2], the Rm is -0.64. Further, the ILS with P388 is >25%.
For the compound `Cl.c1ccc(OCCCCCCCCCOc2ccccc2Nc2c3ccccc3nc3ccccc23)c(Nc2c3ccccc3nc3ccccc23)c1`, the MTD at 120 h in data set [4] was > 500 mg/kg/day. Also, the C50 in the data set listed under Bos taurus was found to be 3.3 µM. The compound further yielded a Rm in data set [2] of 0.85. In the data set on P388, the ILS is >25%.
Turning to `c1ccc2c(NCCCCCCCCCCCCNc3c4ccccc4nc4ccccc34)c3ccccc3nc2c1`, the MTD at 120 h in data set [4] was 5 mg/kg/day. The compound also displayed a C50 in the data set filed under Bos taurus of 0.11 µM. The compound further showed a Rm in data set [2] of 0.79. Moreover, in the data set with P388, the ILS is reported as >25%.
Regarding `Cl.O.c1ccc(OCCCCCCCNc2ccnc3ccccc23)c(Nc2c3ccccc3nc3ccccc23)c1`, the MTD at 120 h in data set [4] amounted to 25 mg/kg/day. The compound also yielded a C50 in the data set filed under Bos taurus of 0.71 µM. This compound came in with a Rm in data set [2] of 0.52. Also, the ILS in the data set on P388 is on record as >25%.
On to `Cl.c1ccc(OCCCCCCCOc2ccccc2Nc2c3ccccc3nc3ccccc23)c(Nc2c3ccccc3nc3ccccc23)c1`, for which the MTD at 120 h in data set [4] is > 500 mg/kg/day. This compound had a C50 in the data set filed under Bos taurus of 3.8 µM. In data set [2], the Rm was determined as 0.75. In the data set with P388, the ILS was >25%.
Regarding `Cl.O=S(=O)(CCCCS(=O)(=O)Nc1ccc(Nc2c3ccccc3nc3ccccc23)cc1)Nc1ccc(Nc2c3ccccc3nc3ccccc23)cc1`, the MTD at 120 h in data set [4] was > 500 mg/kg/day. For the same compound, the C50 in the data set filed under Bos taurus was 0.053 µM. Further, the Rm in data set [2] is listed as -0.11. Further, the ILS with P388 is listed as >25%.

Source of the values: ChEMBL document CHEMBL3272039, “Potenial antitumor agents. 28. Deoxyribonucleic acid polyintercalating agents” (J Med Chem, 1978).
